Here are results for four molecules from PubChem BioAssay (NCI).

Some test systems named below: DMS 114 small cell lung; DU-145 prostate; KM12 colon; KM20L2 colon; LXFL 529 NSCLC; NCI-H522 lung; OVCAR-5 ovarian; SK-OV-3 ovarian; UO-31 renal; MDA-MB-435.
Holding throughout (experiment): NCI-60 cell line screen, 48 h

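96-well plates; 48 h exposure; 5 concentrations. Endpoints by linear interpolation between flanking doses. Not reached: highest tested concentration assigned. Abbreviation: GI50, concentration required for 50% inhibition of growth. The concentration for full growth arrest is given as TGI.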

In the case of `O=C1C=CC2(C=C1)C[C@H](NC(=O)OCc1ccccc1)C(=O)O2`, the TGI with DMS 114 small cell lung was found to be 47.2 µM; with DU-145 prostate, 85.3 µM; with KM12 colon it was 35.7 µM; with KM20L2 colon, 38.7 µM; in the assay with LXFL 529 NSCLC, 24.7 µM; with NCI-H522 lung, 8.53 µM. The TGI with OVCAR-5 ovarian was 38.2 µM; in the assay on SK-OV-3 ovarian it was more than 92.3 µM; with UO-31 renal it was 39.9 µM.

Turning to `C[CH2][Sn]([CH2]C)([O]C(=O)c1ccc(OC)c(OC)c1OC)[O]C(=O)c1ccc(OC)c(OC)c1OC`, the GI50 in the assay on DMS 114 small cell lung was 25.7 µM; in the assay on DU-145 prostate, more than 100 µM; in the assay with KM12 colon, more than 100 µM; in the assay on KM20L2 colon it was more than 100 µM; in the assay on LXFL 529 NSCLC, 12.6 µM; with MDA-MB-435 it was more than 100 µM. Besides, the GI50 is 2.42 µM in the assay with NCI-H522 lung, more than 85.4 µM in the assay on OVCAR-5 ovarian, more than 100 µM in the assay with SK-OV-3 ovarian and more than 65.7 µM in the assay on UO-31 renal. Also, the TGI is more than 72.8 µM in the assay with DMS 114 small cell lung; more than 100 µM in the assay on DU-145 prostate; more than 100 µM in the assay with KM12 colon; more than 100 µM in the assay on KM20L2 colon; 25.3 µM with LXFL 529 NSCLC; more than 100 µM with MDA-MB-435. In addition, the TGI is 8.54 µM in the assay with NCI-H522 lung, more than 100 µM with OVCAR-5 ovarian, more than 100 µM in the assay with SK-OV-3 ovarian and more than 96.4 µM with UO-31 renal.

As for `Nc1ccc(Sc2c3ccccc3nc3ccccc23)cc1`, the TGI in the assay on DMS 114 small cell lung amounted to 38 µM; in the assay on DU-145 prostate, 28.7 µM; in the assay on KM12 colon, 40.4 µM; with KM20L2 colon, 33.1 µM; with LXFL 529 NSCLC it was 21 µM; in the assay on MDA-MB-435, 35.1 µM. The TGI in the assay on NCI-H522 lung was found to be 16 µM; in the assay on OVCAR-5 ovarian it was 52 µM; in the assay with SK-OV-3 ovarian, 59.8 µM; in the assay on UO-31 renal, 34.3 µM.

Take `O=C1C2C3C=CC(C2C(=O)N1CN1CCSCC1)C1C2C(=O)N(CN4CCSCC4)C(=O)C2C31` (centres undefined): the TGI was more than 56.1 µM with DMS 114 small cell lung; more than 100 µM in the assay on KM12 colon; more than 100 µM with KM20L2 colon; more than 100 µM in the assay with LXFL 529 NSCLC; more than 100 µM in the assay with NCI-H522 lung; more than 100 µM with OVCAR-5 ovarian. Moreover, the TGI in the assay with SK-OV-3 ovarian and with UO-31 renal was more than 100 µM each time. Also, the figures for the GI50 in the assay with DU-145 prostate and with NCI-H522 lung were 78.4 µM and 82.3 µM, respectively.
